According to publication PMC4335020, “Single Oral Dose Pharmacokinetics of Decursin and Decursinol Angelate in Healthy Adult Men and Women” (PLoS ONE, 2015):
Where two headings read alike, the source gives them in different places.

Assay: Single oral dose human plasma pharmacokinetics of D, DA and DOH after Cogni.Q
Assay type: in vivo
Settings: for Cmax / Tmax / half-life / AUC(0-t): plasma
Text: Ten healthy male and 10 female subjects were recruited by public announcement in Amarillo, TX, from January 2013 to April 2013 (see Fig. 1 CONSORT diagram). The sample size for each gender was chosen without power calculation due to the lack of prior knowledge of PK parameter variance in humans. After receiving informed consent verbally and in writing, the health status of each candidate was confirmed by health questionnaire, plasma biochemistry (hepatic and renal functions), complete blood cell count (CBC), and a physical examination by a participating academic physician. Subjects with diabetes, or pregnant, perinatal and breastfeeding women were excluded. For the 48 hours preceding study visit until the final blood draw, all subjects were instructed to avoid taking any prescription or nonprescription drugs, vitamins, and herbal/dietary supplements. Each subject was compensated for participating in the study per TTUHSC IRB approved rate.
Eligible subjects arrived at our clinical facility at 0700 (7:00 am) on the test day after a fast beginning at 2200 (10:00 pm) the previous night. After a brief review of vital signs, the nurse placed an intravenous (IV) line with saline drip in one arm of each subject. A baseline pre-dose (hour 0) blood sample was drawn through the IV line; after that subjects swallowed four Cogni.Q vegicaps with 240 mL of water at hour 0 under direct supervision. Subjects stayed at the clinical facility in their room for the next 12 hours, returning at 24 and 48 hours. Blood was drawn at baseline (hour 0) and at 0.5, 1, 2, 3, 4, 6, 8, 12, 24 and 48 hours after dosing into Vacutainer Blood Collection Tube (Becton-Dickinson, Franklin Lakes, NJ. Product Number: 367874, Sodium heparin was used as anti-coagulant). Water was allowed as desired except for within the first hour after Cogni.Q consumption. All subjects received standardized meals at post-dose hours 4.5 and 9.5 but no food was allowed for at least the first 4 hours post-dose.
Plasma was prepared by centrifuging the heparinized blood at 1000 g for 15 minutes at room temperature. Urine samples (40mL) were collected within time spans of 0–4, 4–8, 8–12 and 12–24 hours (total volume of urine was recorded). All plasma and urine samples were put on dry ice immediately and then stored at -80°C freezer until analysis.
Plasma samples were extracted with a validated solid supported liquid extraction (SLE) method facilitated with a positive pressure manifold (Biotage, Charlotte, NC). Briefly, 100 μL of plasma sample was spiked with 5 μL of 10 ng/μL prednisolone (IS), diluted with 200 μL of LC-MS grade water, mixed and loaded onto ISOLUTE SLE+ 400 μL Array Well cartridges (Biotage, Charlotte, NC). A pulse of minimum positive pressure was applied to facilitate the samples absorption into the cartridges. After the samples were allowed to absorb for 5 min, the compounds were eluted with 2×500 μL tert-butyl methyl ether. The eluent was dried in a Speedvac and the resulting residue was reconstituted in 50 μL of methanol for UHPLC-MS/MS analysis.
Eight-point calibration curves were constructed for D, DA and DOH, at concentrations of 0.1, 0.5, 1, 5, 10, 20, 50 and 100 μg/L for D and DA, and at concentrations of 1, 5, 10, 50, 100, 200, 500 and 1000 μg/L for DOH, respectively. The linear range was 0.1–100 μg/L (0.3–300 nmol/L), 0.1–100 μg/L (0.3–300 nmol/L) and 1–1000 μg/L (4–4000 nmol/L) for D, DA and DOH, respectively. The inter- and intra-assay CV were lower than 6.5% and the accuracy was between 90–105%. Calibration curve was run for each batch of samples analyzed. The mean calibration curve correlation coefficient (r) for D, DA and DOH was 0.999, 0.999 and 0.998, respectively (data from 7–10 calibration curves). In addition, 70% of the plasma samples were extracted and analyzed twice, the data from two replicate analyses were nearly identical and combined for final data analyses and presentation. […]

C/C=C(/C)C(=O)O[C@H]1Cc2cc3ccc(=O)oc3cc2OC1(C)C [DA, decursinol angelate]
Cmax (all human subjects n = 20, single oral dose 4 Cogni.Q vegicaps (119 mg D, 77 mg DA), read-out: Cmax, nmol/L Mean (SD)): 48.1 nmol/L
variation in C max and AUC0–48h among individual subjects (all subjects): ≤ 60 fold
Cmax (both sexes, human, oral, 4 Cogni.Q vegicaps, n=20 (S1 Table), read-out: Cmax, nM, Grand Mean): 48.1 nmol/L
Tmax (both sexes, human, oral, 4 Cogni.Q vegicaps, n=20 (S1 Table), read-out: Tmax, h, Grand Mean): 2.4 h
half-life (both sexes, human, oral, all subjects, outliers excluded (S1 Table), read-out: Terminal t1/2, h, Grand Mean (converted)): 19.3 h
AUC(0-t) (both sexes, human, oral, n=20 (S1 Table), read-out: AUC0-48h, Grand Mean): 335 nmol·h/L
Cmax (both sexes, human, po, all human subjects n = 20, single oral dose 4 Cogni.Q vegicaps (119 mg D, 77 mg DA), read-out: Cmax, nmol/L Mean (SD)): 48 nmol/L
Tmax (both sexes, human, po, all human subjects n = 20, single oral dose 4 Cogni.Q vegicaps (119 mg D, 77 mg DA), read-out: Tmax, h, Mean (SD)): 2.4 h
AUC(0-t) (both sexes, human, po, all human subjects n = 20, single oral dose Cogni.Q, plasma (Table 2), read-out: AUC0–48h, nmol/L, Mean (SD)): 335 nmol·h/L
half-life (both sexes, human, po, all human subjects, four outlier subjects excluded, single oral dose Cogni.Q, read-out: Terminal t1/2, h, Mean (SD) (converted)): 19.3 h
AUC(0-t) (both sexes, human, po, twenty healthy subjects, single oral dose Cogni.Q, plasma (abstract), read-out: mean area under the curve (AUC0-48h)): 335 nmol·h/L
AUC(0-t) (female, human, oral, 4 Cogni.Q vegicaps, Women n=10 (S1 Table), read-out: AUC0-48h, Mean, F): 344 nmol·h/L
Cmax (female, human, oral, 4 Cogni.Q vegicaps, Women n=10 (S1 Table), read-out: Cmax, nM, Mean, F): 43.9 nmol/L
Tmax (female, human, oral, Women n=10 (S1 Table), read-out: Tmax, h, Mean, F): 2.7 h
half-life (female, human, oral, Women, outliers excluded (S1 Table), read-out: Terminal t1/2, h, Mean, F (converted)): 23.7 h
AUC(0-t) (female, human, po, Women N = 10, single oral dose Cogni.Q, read-out: AUC0–48h, h.nmol/L Mean (SD)): 344 nmol·h/L
Cmax (female, human, po, Women N = 10, single oral dose Cogni.Q, read-out: Cmax, nmol/L, Mean (SD)): 43.9 nmol/L
Tmax (female, human, po, Women N = 10, single oral dose Cogni.Q, read-out: Tmax, h, Mean (SD)): 2.7 h
half-life (female, human, po, Women, outlier subjects excluded, single oral dose Cogni.Q, read-out: T1/2, h, terminal Mean (SD) (converted)): 23.7 h
half-life (human, oral, 4 Cogni.Q vegicaps, subject S1 (115 lb), outlier, excluded from means, read-out: Terminal t1/2, h (converted)): 20.2 h
AUC(0-t) (human, oral, 4 Cogni.Q vegicaps, subject S1 (115 lb), read-out: AUC0-48h): 190 nmol·h/L
Cmax (human, oral, 4 Cogni.Q vegicaps, subject S1 (115 lb), read-out: Cmax): 23.4 nmol/L
Tmax (human, oral, 4 Cogni.Q vegicaps, subject S1 (115 lb), read-out: Tmax): 2 h
AUC(0-t) (human, oral, 4 Cogni.Q vegicaps, subject S2 (194 lb), read-out: AUC0-48h): 97.5 nmol·h/L
Cmax (human, oral, 4 Cogni.Q vegicaps, subject S2 (194 lb), read-out: Cmax): 13.4 nmol/L
half-life (human, oral, 4 Cogni.Q vegicaps, subject S2 (194 lb), read-out: Terminal t1/2, h (converted)): 38.6 h
Tmax (human, oral, 4 Cogni.Q vegicaps, subject S2 (194 lb), read-out: Tmax): 3 h
half-life (human, oral, 4 Cogni.Q vegicaps, subject S3 (170 lb), outlier, excluded from means, read-out: Terminal t1/2, h (converted)): 31.4 h
AUC(0-t) (human, oral, 4 Cogni.Q vegicaps, subject S3 (170 lb), read-out: AUC0-48h): 142 nmol·h/L
Cmax (human, oral, 4 Cogni.Q vegicaps, subject S3 (170 lb), read-out: Cmax): 27.2 nmol/L
Tmax (human, oral, 4 Cogni.Q vegicaps, subject S3 (170 lb), read-out: Tmax): 6 h
AUC(0-t) (human, oral, 4 Cogni.Q vegicaps, subject S4 (170 lb), read-out: AUC0-48h): 1060 nmol·h/L
Cmax (human, oral, 4 Cogni.Q vegicaps, subject S4 (170 lb), read-out: Cmax): 100 nmol/L
half-life (human, oral, 4 Cogni.Q vegicaps, subject S4 (170 lb), read-out: Terminal t1/2, h (converted)): 17.7 h
Tmax (human, oral, 4 Cogni.Q vegicaps, subject S4 (170 lb), read-out: Tmax): 2 h
AUC(0-t) (human, oral, 4 Cogni.Q vegicaps, subject S5 (161 lb), read-out: AUC0-48h): 294 nmol·h/L
Cmax (human, oral, 4 Cogni.Q vegicaps, subject S5 (161 lb), read-out: Cmax): 21.4 nmol/L
half-life (human, oral, 4 Cogni.Q vegicaps, subject S5 (161 lb), read-out: Terminal t1/2, h (converted)): 12 h
Tmax (human, oral, 4 Cogni.Q vegicaps, subject S5 (161 lb), read-out: Tmax): 1 h
AUC(0-t) (human, oral, 4 Cogni.Q vegicaps, subject S6 (120 lb), read-out: AUC0-48h): 696 nmol·h/L
Cmax (human, oral, 4 Cogni.Q vegicaps, subject S6 (120 lb), read-out: Cmax): 84.3 nmol/L
half-life (human, oral, 4 Cogni.Q vegicaps, subject S6 (120 lb), read-out: Terminal t1/2, h (converted)): 16.2 h
Tmax (human, oral, 4 Cogni.Q vegicaps, subject S6 (120 lb), read-out: Tmax): 3 h
AUC(0-t) (human, oral, 4 Cogni.Q vegicaps, subject S7 (180 lb), read-out: AUC0-48h): 432 nmol·h/L
Cmax (human, oral, 4 Cogni.Q vegicaps, subject S7 (180 lb), read-out: Cmax): 74.3 nmol/L
half-life (human, oral, 4 Cogni.Q vegicaps, subject S7 (180 lb), read-out: Terminal t1/2, h (converted)): 17.4 h
Tmax (human, oral, 4 Cogni.Q vegicaps, subject S7 (180 lb), read-out: Tmax): 4 h
AUC(0-t) (human, oral, 4 Cogni.Q vegicaps, subject S8 (160 lb), read-out: AUC0-48h): 1600 nmol·h/L
Cmax (human, oral, 4 Cogni.Q vegicaps, subject S8 (160 lb), read-out: Cmax): 183 nmol/L
half-life (human, oral, 4 Cogni.Q vegicaps, subject S8 (160 lb), read-out: Terminal t1/2, h (converted)): 16.7 h
Tmax (human, oral, 4 Cogni.Q vegicaps, subject S8 (160 lb), read-out: Tmax): 3 h
AUC(0-t) (human, oral, 4 Cogni.Q vegicaps, subject S9 (158 lb), read-out: AUC0-48h): 80.8 nmol·h/L
Cmax (human, oral, 4 Cogni.Q vegicaps, subject S9 (158 lb), read-out: Cmax): 13.6 nmol/L
half-life (human, oral, 4 Cogni.Q vegicaps, subject S9 (158 lb), read-out: Terminal t1/2, h (converted)): 19.1 h
